Source: patent US20230265151A1, “GIP/GLP1 CO-AGONIST COMPOUNDS” (priority 2020, published 2023)
Where two headings read alike, the source gives them in different places.

Tests used:
Assay type in all cases: cell-based
hGIPR = target: T1, hGIPR (Homo sapiens, UniProt P48546); experiment: Functional cAMP formation (HTRF) in HEK-293 clonal cells expressing hGIPR, 0.1% bovine casein, without or with 1.0% human serum albumin
T1 construct: expressed in transfected cells
T1 sequence (P48546 22-466): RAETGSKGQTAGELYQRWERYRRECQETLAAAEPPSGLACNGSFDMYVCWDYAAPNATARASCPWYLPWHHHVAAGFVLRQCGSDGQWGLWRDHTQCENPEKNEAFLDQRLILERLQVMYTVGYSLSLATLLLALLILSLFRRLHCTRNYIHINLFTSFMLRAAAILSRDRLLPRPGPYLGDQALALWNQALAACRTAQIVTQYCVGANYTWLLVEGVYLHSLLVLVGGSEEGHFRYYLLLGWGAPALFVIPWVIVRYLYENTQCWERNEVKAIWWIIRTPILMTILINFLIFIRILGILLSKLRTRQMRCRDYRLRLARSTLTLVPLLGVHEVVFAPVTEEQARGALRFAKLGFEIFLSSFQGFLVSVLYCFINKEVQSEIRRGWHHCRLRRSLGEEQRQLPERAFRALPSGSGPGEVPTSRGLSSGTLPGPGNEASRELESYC
Method: (§1) After a 30-min incubation at 37° C., the resulting increase in intracellular cAMP is quantitatively determined using a CisBio cAMP Dynamic 2 HTRF Assay Kit (62AM4PEJ). Briefly, cAMP levels within the cell are detected by adding the cAMP-d2 conjugate in cell lysis buffer (10 µL) followed by the antibody anti-cAMP-Eu^3+-Cryptate, also in cell lysis buffer (10 µL). The resulting competitive assay is incubated for at least 60 min at room temperature, and then is detected using a PerkinElmer Envision® instrument with excitation at 320 nm and emission at 665 nm and 620 nm. Envision units (emission at 665 nm/620 nm* 10,000) are inversely proportional to the amount of cAMP present and are converted to nM cAMP per well us-ing a cAMP standard curve. […] A relative EC50 value and percent top (Emax) are derived by non-linear regression analysis using the percent maximal response vs. the concentration of peptide added, fitted to a four-parameter logistic equation.

hGCGR = target: T2, hGCGR (Homo sapiens, UniProt P47871); experiment: Functional cAMP formation (HTRF) in HEK-293 clonal cells expressing hGCGR, 0.1% bovine casein, without or with 1.0% human serum albumin; conditions: geometric mean, read-out: hGCGR EC50, nM (SEM, n)
T2 construct: expressed in transfected cells
T2 sequence (P47871 26-477): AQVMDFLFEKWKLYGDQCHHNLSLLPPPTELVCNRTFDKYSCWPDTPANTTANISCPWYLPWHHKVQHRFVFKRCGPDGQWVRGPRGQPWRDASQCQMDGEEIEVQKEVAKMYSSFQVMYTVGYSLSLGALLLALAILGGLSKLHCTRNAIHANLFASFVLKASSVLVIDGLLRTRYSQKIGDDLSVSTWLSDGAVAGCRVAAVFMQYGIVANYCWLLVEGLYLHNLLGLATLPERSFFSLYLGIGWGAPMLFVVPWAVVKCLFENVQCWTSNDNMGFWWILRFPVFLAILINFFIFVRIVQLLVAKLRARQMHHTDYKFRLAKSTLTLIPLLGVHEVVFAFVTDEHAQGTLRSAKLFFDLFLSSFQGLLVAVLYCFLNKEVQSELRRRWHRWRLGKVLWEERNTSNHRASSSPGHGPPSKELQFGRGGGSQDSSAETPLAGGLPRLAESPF
Method: as §1

hGLP-1R = hGLP-1R (Homo sapiens, UniProt P43220); experiment: Functional cAMP formation (HTRF) in HEK-293 clonal cells expressing hGLP-1R, 0.1% bovine casein, without or with 1.0% human serum albumin; parameters: expressed in transfected cells; conditions: percent of maximal response to GLP-1(7-36)NH2
hGLP-1R, sequence (P43220 24-463): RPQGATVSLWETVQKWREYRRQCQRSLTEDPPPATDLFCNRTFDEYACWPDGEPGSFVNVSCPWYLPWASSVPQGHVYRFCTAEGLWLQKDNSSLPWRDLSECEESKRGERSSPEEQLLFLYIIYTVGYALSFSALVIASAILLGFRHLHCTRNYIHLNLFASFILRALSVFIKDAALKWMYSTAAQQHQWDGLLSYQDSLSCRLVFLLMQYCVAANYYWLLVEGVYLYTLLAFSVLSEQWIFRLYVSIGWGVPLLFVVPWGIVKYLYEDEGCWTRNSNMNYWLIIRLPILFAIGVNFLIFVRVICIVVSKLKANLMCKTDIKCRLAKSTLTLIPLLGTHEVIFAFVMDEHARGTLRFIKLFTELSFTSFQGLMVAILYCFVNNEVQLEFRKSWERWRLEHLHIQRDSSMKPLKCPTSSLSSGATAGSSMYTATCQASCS
Method: as §1

[1] = HEK293, 0.1% bovine casein and 1.0% human serum albumin, 37° C., percent of maximal response to GIP(1-42)NH2, read-out: hGIPR Emax, % ± SEM
[2] = cAMP, incubated at 37° C., 0.1% bovine casein (no human serum albumin)

Work on `CC[C@H](C)[C@H](NC(=O)[C@H](CC(C)C)NC(=O)[C@](C)(Cc1ccc(O)cc1)NC(=O)[C@@H](CCC(=O)O)NC(=O)[C@@H](NC(=O)[C@H](Cc1ccccc1)NC(=O)[C@H](CCC(=O)O)NC(=O)C(C)(C)NC(=O)[C@H](CCC(N)=O)NC(=O)[C@H](C)NC(=O)[C@H](CCCCNC(=O)[C@@H](N)CCCCNC(=O)CC[C@H](NC(=O)CC[C@H](NC(=O)CCCCCCCCCCCCC(=O)O)C(=O)O)C(=O)O)NC(=O)[C@H](CCCN)NC(=O)[C@H](CC(=O)O)NC(=O)[C@H](CC(C)C)NC(=O)[C@](C)(CC(C)C)NC(=O)[C@@H](NC(=O)[C@H](CO)NC(=O)[C@H](Cc1ccncc1)NC(=O)[C@H](CC(=O)O)NC(=O)[C@H](CO)NC(=O)[C@@H](NC(=O)[C@](C)(Cc1ccccc1F)NC(=O)[C@@H](NC(=O)CNC(=O)[C@H](CCC(=O)O)NC(=O)C(C)(C)NC(=O)[C@@H](N)Cc1ccc(O)cc1)[C@@H](C)O)[C@@H](C)O)[C@@H](C)CC)[C@@H](C)CC)C(=O)N[C@@H](CCC(=O)O)C(=O)NCC(=O)NCC(=O)N[C@@H](CCCCNC(=O)[C@@H](N)CCCCNC(=O)CC[C@H](NC(=O)CC[C@H](NC(=O)CCCCCCCCCCCCC(=O)O)C(=O)O)C(=O)O)C(=O)N[C@@H](CO)C(=O)N[C@@H](CO)C(=O)NCC(=O)N[C@@H](C)C(=O)N1CCC[C@H]1C(=O)N1CCC[C@H]1C(=O)N1CCC[C@H]1C(=O)N[C@@H](CO)C(N)=O` [Example 39] yielded an Emax (hGIPR; [1]) of 86.8 ± 3.27% and an Emax (hGIPR; HEK293, percent of maximal response to GIP(1-42)NH2, 37° C., 0.1% bovine casein, arithmetic mean, read-out: hGIPR Emax, % ± SEM) of 96.5 ± 1.44%.
With `CC[C@H](C)[C@H](NC(=O)[C@H](CC(C)C)NC(=O)[C@](C)(Cc1ccc(O)cc1)NC(=O)[C@@H](CCC(=O)O)NC(=O)[C@@H](NC(=O)[C@](C)(Cc1ccccc1)NC(=O)[C@H](CCC(=O)O)NC(=O)C(C)(C)NC(=O)[C@H](CCC(N)=O)NC(=O)[C@H](C)NC(=O)[C@H](CCCCNC(=O)COCCOCCNC(=O)COCCOCCNC(=O)CC[C@H](NC(=O)CCCCCCCCCCCCC(=O)O)C(=O)O)NC(=O)[C@H](CCCN)NC(=O)[C@H](CC(=O)O)NC(=O)[C@H](CC(C)C)NC(=O)[C@](C)(CC(C)C)NC(=O)[C@@H](NC(=O)[C@H](CO)NC(=O)[C@@H](NC(=O)[C@H](CC(=O)O)NC(=O)[C@H](CO)NC(=O)[C@@H](NC(=O)[C@](C)(Cc1ccccc1F)NC(=O)[C@@H](NC(=O)CNC(=O)[C@H](CCC(=O)O)NC(=O)C(C)(C)NC(=O)[C@@H](N)Cc1ccc(O)cc1)[C@@H](C)O)[C@@H](C)O)C(C)C)[C@@H](C)CC)[C@@H](C)CC)C(=O)N[C@@H](CCC(=O)O)C(=O)NCC(=O)NCC(=O)N[C@@H](CCCCNC(=O)COCCOCCNC(=O)COCCOCCNC(=O)CC[C@H](NC(=O)CCCCCCCCCCCCC(=O)O)C(=O)O)C(=O)N[C@@H](CO)C(=O)N[C@@H](CO)C(=O)NCC(=O)N[C@@H](C)C(=O)N1CCC[C@H]1C(=O)N1CCC[C@H]1C(=O)N1CCC[C@H]1C(=O)N[C@@H](CO)C(N)=O` [Example 92] the EC50 (hGCGR; 0.1% bovine casein and 1.0% human serum albumin, 37° C.) was over 9950 nM and the EC50 (hGCGR; [2]) was over 9950 nM.
For `CC[C@H](C)[C@H](NC(=O)[C@H](CC(C)C)NC(=O)[C@](C)(Cc1ccc(O)cc1)NC(=O)[C@@H](CCC(=O)O)NC(=O)[C@@H](NC(=O)[C@H](Cc1ccccc1)NC(=O)[C@H](CCC(=O)O)NC(=O)C(C)(C)NC(=O)[C@H](CCC(N)=O)NC(=O)[C@H](C)NC(=O)[C@H](CCCCNC(=O)COCCOCCNC(=O)COCCOCCNC(=O)CC[C@H](NC(=O)CCCCCCCCCCCCC(=O)O)C(=O)O)NC(=O)[C@H](CCCN)NC(=O)[C@H](CC(=O)O)NC(=O)[C@H](CC(C)C)NC(=O)[C@](C)(CC(C)C)NC(=O)[C@@H](NC(=O)[C@H](CO)NC(=O)[C@H](Cc1ccc(C(=O)O)cc1)NC(=O)[C@H](CC(=O)O)NC(=O)[C@H](CO)NC(=O)[C@@H](NC(=O)[C@](C)(Cc1ccccc1F)NC(=O)[C@@H](NC(=O)CNC(=O)[C@H](CCC(=O)O)NC(=O)C(C)(C)NC(=O)[C@@H](N)Cc1ccc(O)cc1)[C@@H](C)O)[C@@H](C)O)[C@@H](C)CC)[C@@H](C)CC)C(=O)N[C@@H](CCC(=O)O)C(=O)NCC(=O)NCC(=O)N[C@@H](CCCCNC(=O)COCCOCCNC(=O)COCCOCCNC(=O)CC[C@H](NC(=O)CCCCCCCCCCCCC(=O)O)C(=O)O)C(=O)N[C@@H](CO)C(=O)N[C@@H](CO)C(=O)NCC(=O)N[C@@H](C)C(=O)N1CCC[C@H]1C(=O)N1CCC[C@H]1C(=O)N1CCC[C@H]1C(=O)N[C@@H](CO)C(N)=O` [Example 96], the EC50 (hGCGR; [2]) was over 9950 nM.
Work on `CC[C@H](C)[C@H](NC(=O)[C@H](CC(C)C)NC(=O)[C@](C)(Cc1ccc(O)cc1)NC(=O)[C@@H](CCC(=O)O)NC(=O)[C@@H](NC(=O)[C@H](Cc1ccccc1)NC(=O)[C@H](CCC(=O)O)NC(=O)C(C)(C)NC(=O)[C@H](CCC(N)=O)NC(=O)[C@H](C)NC(=O)[C@H](CCCCNC(=O)COCCOCCNC(=O)COCCOCCNC(=O)CCCCCCCCCCCCC(=O)O)NC(=O)[C@H](CCCN)NC(=O)[C@H](CC(=O)O)NC(=O)[C@H](CC(C)C)NC(=O)[C@](C)(CC(C)C)NC(=O)[C@@H](NC(=O)[C@H](CO)NC(=O)[C@H](Cc1ccc2ccccc2c1)NC(=O)[C@H](CC(=O)O)NC(=O)[C@H](CO)NC(=O)[C@@H](NC(=O)[C@](C)(Cc1ccccc1F)NC(=O)[C@@H](NC(=O)CNC(=O)[C@H](CCC(=O)O)NC(=O)C(C)(C)NC(=O)[C@@H](N)Cc1ccc(O)cc1)[C@@H](C)O)[C@@H](C)O)[C@@H](C)CC)[C@@H](C)CC)C(=O)N[C@@H](CCC(=O)O)C(=O)NCC(=O)NCC(=O)N1CCC[C@H]1C(=O)N[C@@H](CO)C(=O)N[C@@H](CO)C(=O)NCC(=O)N[C@@H](C)C(=O)N1CCC[C@H]1C(=O)N1CCC[C@H]1C(=O)N1CCC[C@H]1C(=O)N[C@@H](CO)C(=O)N[C@@H](CCCCNC(=O)COCCOCCNC(=O)COCCOCCNC(=O)CCCCCCCCCCCCC(=O)O)C(N)=O` [Example 257] yielded an Emax (hGIPR; [1]) of 72.2%, an Emax (hGIPR; HEK293, cAMP, 37° C., 0.1% bovine casein, percent of maximal response to GIP(1-42)NH2, arithmetic mean, read-out: hGIPR Emax, % ± SEM) of 90.3% and an Emax (hGLP-1R; HEK293, cAMP, 37° C., 0.1% bovine casein, arithmetic mean, read-out: hGLP-1R Emax, % ± SEM) of 82%.
Work on `CC[C@H](C)[C@H](NC(=O)[C@H](CC(C)C)NC(=O)[C@](C)(Cc1ccc(O)cc1)NC(=O)[C@@H](CCC(=O)O)NC(=O)[C@@H](NC(=O)[C@H](Cc1ccccc1)NC(=O)[C@H](CCCN)NC(=O)C(C)(C)NC(=O)[C@H](CCC(N)=O)NC(=O)[C@H](C)NC(=O)[C@H](CCCCNC(=O)COCCOCCNC(=O)COCCOCCNC(=O)CC[C@H](NC(=O)CCCCCCCCCOc1ccc(C(=O)O)cc1)C(=O)O)NC(=O)[C@H](CCCN)NC(=O)[C@H](CC(=O)O)NC(=O)[C@H](CC(C)C)NC(=O)[C@](C)(CC(C)C)NC(=O)[C@@H](NC(=O)C(C)(C)NC(=O)[C@H](Cc1ccncc1)NC(=O)[C@H](CC(=O)O)NC(=O)[C@H](CO)NC(=O)[C@@H](NC(=O)[C@](C)(Cc1ccccc1F)NC(=O)[C@@H](NC(=O)CNC(=O)[C@H](CCC(=O)O)NC(=O)C(C)(C)NC(=O)[C@@H](N)Cc1ccc(O)cc1)[C@@H](C)O)[C@@H](C)O)[C@@H](C)CC)[C@@H](C)CC)C(=O)N[C@@H](CCCCNC(=O)COCCOCCNC(=O)COCCOCCNC(=O)CC[C@H](NC(=O)CCCCCCCCCOc1ccc(C(=O)O)cc1)C(=O)O)C(=O)NCC(=O)NCC(=O)N1CCC[C@H]1C(=O)N[C@@H](CO)C(=O)N[C@@H](CO)C(=O)NCC(=O)N[C@@H](C)C(=O)N1CCC[C@H]1C(=O)N1CCC[C@H]1C(=O)N1CCC[C@H]1C(=O)N[C@@H](CO)C(N)=O` [Example 351] yielded an Emax (hGIPR; HEK293, read-out: hGIPR Emax, % ± SEM, cAMP, 37° C., 0.1% bovine casein and 1.0% human serum albumin, percent of maximal response to GIP(1-42)NH2) of 67.9%, an Emax (hGLP-1R; HEK293, read-out: hGLP-1R Emax, % ± SEM, cAMP, 37° C., 0.1% bovine casein and 1.0% human serum albumin) of 91% and an Emax (hGLP-1R; HEK293, read-out: hGLP-1R Emax, % ± SEM, cAMP, 37° C., 0.1% bovine casein, arithmetic mean) of 100%.
